Experimental data as given in patent publication US9234006B2, “Compounds” (Novacta Biosystems Limited, priority 2011, dated 2016).
Structures can show the parent of a compound that is named as a salt. Where a SMILES comes first, the peptide text is derived from it. Bridges are numbered along the chain shown (N, C = ends). [ ]: non-standard residue; d: D form. The star is where a group is joined. ξ: configuration not given here. Thr(3ξ) = CC(O)[C@H](N)C(=O)O; Dab = NCC[C@H](N)C(=O)O; X1 = CCCCCCC(O)C(=O)*; GABA = NCCCC(=O)O

What was measured:
K. pneumoniae NCTC8172 = experiment: MIC susceptibility testing, broth microdilution in CaMHB; type: cell-based, Klebsiella pneumoniae
In short: (§1)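 Growth inhibition was read as MIC after inoculation with a 100-fold dilution of log-phase culture at OD600 0.2-0.3, […]. That subculture came from an 18-20 hour CaMHB overnight at 37° C, 250 rpm. Tests were duplicated.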

K. pneumoniae ATCC 4352 = experiment: as above; type: cell-based, Klebsiella pneumoniae
In short: as §1

K. pneumoniae NCTC7427 = experiment: as above; type: cell-based, Klebsiella pneumoniae
In short: as §1

[1] = test system: K. pneumoniae ATCCBAA-1706; experiment: as above; type: cell-based, Klebsiella pneumoniae; conditions: Table 4
In short: as §1

E. coli NCTC9001 = experiment: as above; type: cell-based, Escherichia coli
In short: as §1

E. coli ATCC25922 = experiment: as above; type: cell-based, Escherichia coli
In short: as §1

E. coli NCTC12900 = experiment: as above; type: cell-based, Escherichia coli
In short: as §1

E. coli ATCC700928 = experiment: as above; type: cell-based, Escherichia coli
In short: as §1

[2] = Pharmacokinetic and urinary clearance studies in rats; type: in vivo
Method: Drug solutions were prepared at 4 mg/mL in Normal Saline and the pH adjusted to 6-7 by adding the appropriate volume of 0.1 M H2SO4 or 4.2% NaHCO3. The solutions were filter-sterilized and stored at −80° C. before use. On the day of the experiment, drug solutions were diluted to 1 mg/mL with sterile Normal Saline.
Groups of 3 male Sprague Dawley rats were acclimatised for a minimum of 4 days before the study. Rats were anesthetized using isofluorane and a cannula was inserted into the jugular vein. One day after surgery, rats were dosed with an intravenous bolus injection of the solution at 1 mg/kg through the cannula, followed by washing with Normal Saline. Blood was collected manually through the cannula prior to administration of the compound and at 0.08, 0.25, 0.5, 1, 3, 6, 8 and 24 h thereafter. Plasma was harvested by centrifugation immediately after blood collection. Twenty-four hour urine samples were collected prior to and after administration of the compound in 0-4 h, 4-6 h, and 6-24 h intervals. Plasma and urine samples were frozen at −20° C.
Determination of the plasma and urine concentrations of the drug was performed by Liquid Chromatography Mass Spectrometry (LC-MS/MS). Before analysis the plasma and urine samples were prepared as follows. Plasma samples were thawed on the day of analysis and mixed with 3 volumes of acetonitrile containing 0.1% (v/v) formic acid and 100 ng/mL of internal standard. After centrifugation, supernatants were transferred to a 96-well plate and diluted 1:1 with water ready for analysis by LC-MS/MS. Urine samples were purified by solid-phase extraction (SPE) on Oasis HLB cartridges (Waters, UK) eluting with 100% methanol. An aliquot was transferred to a 96 well plate and diluted 1:1 with water before addition of internal standard solution, ready for analysis by LC-MS/MS.
The pharmacokinetic parameters were determined by non-compartmental analysis using WinNonLin v5.3. The urinary recovery was recorded as the percentage of intact drug recovered in the urine for the first 24 h after injection.

A. baumannii NCTC7844 = experiment: MIC susceptibility testing, broth microdilution in CaMHB; type: cell-based, Acinetobacter baumannii
In short: as §1

A. baumannii NCTC13423 = experiment: as above; type: cell-based, Acinetobacter baumannii
In short: as §1

A. baumannii ATCC19606 = experiment: as above; type: cell-based, Acinetobacter baumannii
In short: as §1

A. baumannii ATCCBAA-747 = experiment: as above; type: cell-based, Acinetobacter baumannii
In short: as §1

P. aeruginosa ATCC 9721 = experiment: as above; type: cell-based, Pseudomonas aeruginosa
In short: as §1

P. aeruginosa ATCC10145 = experiment: as above; type: cell-based, Pseudomonas aeruginosa
In short: as §1

[3] = test system: P. aeruginosa ATCCCRM-9027; experiment: as above; type: cell-based, Pseudomonas aeruginosa
In short: as §1

P. aeruginosa ATCC27853 = experiment: as above; type: cell-based, Pseudomonas aeruginosa
In short: as §1

[4] = Table 4A, different batches of cation-adjusted Muller-Hinton broth
[5] = K. pneumoniae ATCC 4352, Table 4
[6] = K. pneumoniae ATCC4352, Table 4A, different batches of cation-adjusted Muller-Hinton broth
[7] = male Sprague Dawley rats, intravenous bolus 1 mg/kg
[8] = male Sprague Dawley rats, intravenous bolus 1 mg/kg, plasma
[9] = P. aeruginosa ATCC 9721, Table 4
[10] = P. aeruginosa ATCC9721, Table 4A, different batches of cation-adjusted Muller-Hinton broth
[11] = P. aeruginosa AATCCRM 9027, Table 4A, different batches of cation-adjusted Muller-Hinton broth
[12] = P. aeruginosa ATCCCRM-9027, Table 4
[13] = male, Sprague Dawley, rat, in vivo, iv, 1 mg/kg

| Molecule | MIC (K. pneumoniae NCTC8172; [4]) [micrograms/mL] | MIC (K. pneumoniae ATCC 4352; [5]) [micrograms/mL] | MIC (K. pneumoniae ATCC 4352; [6]) [micrograms/mL] | MIC (K. pneumoniae NCTC7427; Table 4) [micrograms/mL] | MIC (K. pneumoniae NCTC7427; [4]) [micrograms/mL] | MIC [1] [micrograms/mL] | MIC (E. coli NCTC9001; Table 4) [micrograms/mL] | MIC (E. coli NCTC9001; [4]) [micrograms/mL] | MIC (E. coli ATCC25922; Table 4) [micrograms/mL] | MIC (E. coli ATCC25922; [4]) [micrograms/mL] | MIC (E. coli NCTC12900; [4]) [micrograms/mL] | MIC (E. coli ATCC700928; Table 4) [micrograms/mL] | MIC (E. coli ATCC700928; [4]) [micrograms/mL] | MIC (A. baumannii NCTC7844; Table 4) [micrograms/mL] | MIC (A. baumannii NCTC7844; [4]) [micrograms/mL] | MIC (A. baumannii ATCC19606; Table 4) [micrograms/mL] | MIC (A. baumannii ATCC19606; [4]) [micrograms/mL] | MIC (P. aeruginosa ATCC 9721; [9]) [micrograms/mL] | MIC (P. aeruginosa ATCC 9721; [10]) [micrograms/mL] | MIC (P. aeruginosa ATCC10145; Table 4) [micrograms/mL] | also measured |
| --- | --- | --- | --- | --- | --- | --- | --- | --- | --- | --- | --- | --- | --- | --- | --- | --- | --- | --- | --- | --- | --- |
| Polymyxin B [reference compound] | 1 | 0.5 | 0.25 | 0.25 | 0.25 | 0.25 | 0.25 | 0.25 | 0.5 | 1 | 0.25 | 0.25 | 0.25 | 0.25 | 0.25 | 0.5 | 0.125 | 0.5 | 0.125 | 0.5 | MIC (K. pneumoniae NCTC8172; Table 4): 0.5 micrograms/mL; CL (clearance) [2, 7]: 429 mL/h/kg; Vd [2, 7]: 1.12 L/kg; AUC(0-inf) [2, 8]: 2372 ng·h/mL; Cmax [2, 8]: 1455 ng/mL; t1/2 [2, 8]: 1.94 h; Urinary recovery ([2]; male Sprague Dawley rats, intravenous bolus 1 mg/kg, intact drug in urine in first 24 h): 0.3 % dose; MIC (A. baumannii NCTC13423; Table 4): 0.25 micrograms/mL; MIC (A. baumannii NCTC13423; [4]): <0.06 micrograms/mL; MIC (A. baumannii ATCCBAA-747; Table 4): 0.25 micrograms/mL; MIC (A. baumannii ATCCBAA-747; [4]): 0.125 micrograms/mL; MIC (P. aeruginosa ATCC10145; [4]): 1 micrograms/mL; MIC [3, 11]: 0.25 micrograms/mL; MIC [3, 12]: 0.25 micrograms/mL; MIC (P. aeruginosa ATCC27853; Table 4): 0.5 micrograms/mL; MIC (P. aeruginosa ATCC27853; [4]): 0.5 micrograms/mL |
| CCCCCCC(O)C(=O)N[C@H](C(=O)N[C@@H](CCN)C(=O)N[C@H]1CCNC(=O)[C@H](C(C)O)NC(=O)[C@H](CCN)NC(=O)[C@H](CCN)NC(=O)[C@H](CC(C)C)NC(=O)[C@@H](Cc2ccccc2)NC(=O)[C@H](CCN)NC1=O)C(C)O (stereo partly drawn) [Example 2, [2(R,S)-2-Hydroxyoctanoyl] Polymyxin B Nonapeptide, Sulphate Salt] (X1-[Thr(3ξ)][Dab][Dab][Dab][dF]L[Dab][Dab][Thr(3ξ)]; lactam 3-C) | 4 | 0.5 | 1 | 4 | 0.5 | 0.5 | 0.25 | 2 | 1 | 2 | 8 | 0.25 | 0.5 | 2 | 4 | 2 | 2 | 2 | 0.5 | 1 | MIC (K. pneumoniae NCTC8172; Table 4): 4 micrograms/mL; MIC (E. coli NCTC12900; Table 4): 0.25 micrograms/mL; AUC(0-inf) [2, 13]: 4010 ng·h/mL; Cmax [2, 13]: 2400 ng/mL; Vd [2, 13]: 0.488 L/kg; clearance [2, 13]: 4.18 mL/min/kg; half-life [2, 13]: 80.4 min; MIC (A. baumannii NCTC13423; Table 4): 1 micrograms/mL; MIC (A. baumannii NCTC13423; [4]): 1 micrograms/mL; MIC (A. baumannii ATCCBAA-747; Table 4): 2 micrograms/mL; MIC (A. baumannii ATCCBAA-747; [4]): 2 micrograms/mL; MIC (P. aeruginosa ATCC10145; [4]): 1 micrograms/mL; MIC [3, 11]: 0.5 micrograms/mL; MIC [3, 12]: 0.25 micrograms/mL; MIC (P. aeruginosa ATCC27853; Table 4): 0.5 micrograms/mL; MIC (P. aeruginosa ATCC27853; [4]): 0.5 micrograms/mL |
| CC(C)C[C@@H]1NC(=O)[C@@H](Cc2ccccc2)NC(=O)[C@H](CCN)NC(=O)[C@@H](NC(=O)[C@H](CCN)NC(=O)[C@@H](NC(=O)CCCN)[C@@H](C)O)CCNC(=O)[C@H]([C@@H](C)O)NC(=O)[C@H](CCN)NC(=O)[C@H](CCN)NC1=O [Example 6, 4-Aminobutanoyl Polymyxin B Nonapeptide, Sulphate Salt] (H-[GABA]T[Dab][Dab][Dab][dF]L[Dab][Dab]T; lactam 4-C) | 16 | 0.125 | 1 | 0.125 | 0.125 | 0.25 | 1 | 8 | 0.5 | 2 | 8 | 0.125 | 2 | 2 | 2 | 0.25 | 4 | 0.125 | 0.125 | 0.25 | MIC (E. coli NCTC12900; Table 4): 2 micrograms/mL; AUC(0-inf) [2, 13]: 2620 ng·h/mL; Cmax [2, 13]: 3580 ng/mL; Vd [2, 13]: 0.289 L/kg; clearance [2, 13]: 6.43 mL/min/kg; half-life [2, 13]: 33.6 min; MIC (P. aeruginosa ATCC10145; [4]): 0.5 micrograms/mL; MIC [3, 11]: 0.25 micrograms/mL; MIC [3, 12]: 0.125 micrograms/mL; MIC (P. aeruginosa ATCC27853; Table 4): 0.25 micrograms/mL; MIC (P. aeruginosa ATCC27853; [4]): 0.25 micrograms/mL |
